Experimental data published in US8778966B2, “Quinolinone derivatives as PARP and tank inhibitors” (Janssen Pharmaceutica, NV, priority 2007, dated 2014).
Like-named read-outs stand apart in the source and are kept apart here.

Test system: PC-3 cells
Experiment: Antiproliferative activity, Alamar Blue assay, PC-3 cells
Format: cell-based, human
Settings: Homo sapiens, PC-3, PC3 cells, read-out: PC3 antiproliferative activity pIC50 (converted)
In short: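 Resazurin-based fluorescence (540 nm ex/590 nm em) measured after 4-day compound treatment plus 24 hrs dye incubation at 37° C. Cells plated at 4.5×10^3 cells/ml, adhered 24 hr first. pIC50 from probit-derived IC50 on % viable cells versus untreated, triplicate wells.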

## CCc1cc2c(OC)cc(C(C)(C#N)Cc3nc(OC)cc(OC)n3)cc2[nH]c1=O (stereo not shown) [Compound 229]
Alamar Blue
  IC50: 5010 nM

## CCc1cc2ccc(C(C)(C#N)Cc3cccc(/C=N/O)c3)cc2[nH]c1=O (stereo not shown) [Compound 299]
Alamar Blue
  IC50: 1000 nM

## CCc1cc2ccc(C(C)(C#N)Cc3cc(Br)cc4c3OCC4)cc2[nH]c1=O (stereo not shown) [Compound 378]
Alamar Blue
  IC50: 794 nM

## CCc1cc2ccc(C(C)(C#N)CN3CCN(c4ccc(C#N)cn4)CC3)cc2[nH]c1=O (stereo not shown) [Compound 377]
Alamar Blue
  IC50: 794 nM

## CCc1cc2ccc(C(C)(C#N)Cc3cccc(C(=O)OC(C)C)c3)cc2[nH]c1=O (stereo not shown) [Compound 255]
Alamar Blue
  IC50: 251 nM

## CCc1cc2ccc([C@@](C)(C#N)Cc3cc(OC)nc(C)n3)cc2[nH]c1=O (single isomer, unassigned) [Compound 361]
Alamar Blue
  IC50: 10000 nM

## CCc1cc2ccc(C(C)(C#N)Cc3nc(C#N)cc(OC)n3)cc2[nH]c1=O (stereo not shown) [Compound 313]
Alamar Blue
  IC50: 251 nM

## CCc1cc2ccc([C@](C)(C#N)Cc3cccc(C#CCO)c3)cc2[nH]c1=O (single isomer, unassigned) [Compound 296]
Alamar Blue
  IC50: 100 nM

## CCc1cc2ccc(C(C)(C#N)Cc3cccc(OC)c3F)cc2[nH]c1=O (stereo not shown) [Compound 286]
Alamar Blue
  IC50: 2000 nM

## CCc1cc2ccc(C(C)(C#N)Cc3cccc(C(=N)NO)c3)cc2[nH]c1=O (stereo not shown) [Compound 186]
Alamar Blue
  IC50: 5010 nM

## CCc1cc2ccc(C(C)(C#N)Cc3cc(C#N)nc(OC)c3)cc2[nH]c1=O (stereo not shown) [Compound 314]
  IC50: 1000 nM

## CCc1cc2ccc(C(C)(C#N)Cc3cccc(OCCCN4CCNCC4)c3)cc2[nH]c1=O (stereo not shown) [Compound 25]
  IC50: 6310 nM

## CCc1cc2ccc(C(C)(C#N)Cc3cccc(OCCC#N)c3)cc2[nH]c1=O (stereo not shown) [Compound 195]
Alamar Blue
  IC50: 251 nM

## CCc1cc2ccc(C(C)(C#N)Cc3cccc(OCCCC#N)c3)cc2[nH]c1=O (stereo not shown) [Compound 194]
  IC50: 631 nM

## CCc1cc2ccc(C(C)(C#N)Cc3nc(Cl)cc(OC)n3)cc2[nH]c1=O (stereo not shown) [Compound 202]
Alamar Blue
  IC50: 251 nM

## CCc1cc2ccc(C(C)(C#N)CNCc3ccc(C#N)cc3)cc2[nH]c1=O (stereo not shown) [Compound 302]
Alamar Blue
  IC50: 5010 nM

## CCc1cc2ccc(C(C)(C#N)Cc3cccc(NC)n3)cc2[nH]c1=O (stereo not shown) [Compound 339]
Alamar Blue
  IC50: 3160 nM

## CCc1cc2ccc(C(C)(C#N)Cc3cc(N(C)C)nc(N(C)C)n3)cc2[nH]c1=O (stereo not shown) [Compound 320]
Alamar Blue
  IC50: 631 nM

## CCc1cc2ccc(C(C)(C#N)COCc3ccccc3)cc2[nH]c1=O (stereo not shown) [Compound 197]
Alamar Blue
  IC50: 6310 nM

## CCc1cc2ccc(C(C)(C#N)Cc3cccc(OCCS(C)(=O)=O)c3)cc2[nH]c1=O (stereo not shown) [Compound 201]
  IC50: 5010 nM

## Cc1cc2ccc(C(C)(C#N)C3CCc4ccccc43)cc2[nH]c1=O (stereo not shown) [Compound 392]
Alamar Blue
  IC50: 794 nM

## CCc1cc2ccc(C(C)(C#N)Cc3cccc(/C=N/OC)c3)cc2[nH]c1=O (stereo not shown) [Compound 185]
  IC50: 251 nM

## CCc1cc2ccc(C(C)(C#N)Cc3cc(Br)cc(N(C)C)c3)cc2[nH]c1=O (stereo not shown) [Compound 260]
Alamar Blue
  IC50: 200 nM

## CCc1cc2ccc(C(C)(C#N)Cc3cc(OC)nc(OC)c3)cc2[nH]c1=O (stereo not shown) [Compound 350]
Alamar Blue
  IC50: 1580 nM

## Cc1cc2ccc([C@](C)(C#N)C3CCc4ccccc43)cc2[nH]c1=O (single isomer, unassigned) [Compound 386]
Alamar Blue
  IC50: 200 nM

## C#CCOc1cccc(CC(C)(C#N)c2ccc3cc(CC)c(=O)[nH]c3c2)c1 (stereo not shown) [Compound 196]
Alamar Blue
  IC50: 1000 nM

## CCc1cc2ccc([C@](C)(C#N)CCOc3ccc(C#N)cc3)cc2[nH]c1=O (single isomer, unassigned) [Compound 275]
Alamar Blue
  IC50: 10000 nM

## CCOc1cccc(CC(C)(C#N)c2ccc3cc(CC)c(=O)[nH]c3c2)c1 (stereo not shown) [Compound 285]
Alamar Blue
  IC50: 1580 nM

## CCc1cc2ccc(C(C)(C#N)Cc3cc(OC)c(OC)c(OC)c3)cc2[nH]c1=O (stereo not shown) [Compound 289]
Alamar Blue
  IC50: 316 nM

## CCc1cc2ccc(C(C)(C#N)Cc3cccc(C#N)[n+]3[O-])cc2[nH]c1=O (stereo not shown) [Compound 228]
  IC50: 3160 nM

## CCc1cc2c(OC)cc(C(C)(C#N)Cc3nc(OC)cc(OC)n3)cc2[nH]c1=O (single isomer, unassigned) [Compound 230]
Alamar Blue
  IC50: 2000 nM

## CCc1cc2ccc(C(C)(C#N)Cc3cc(C#N)nc(N(C)C)c3)cc2[nH]c1=O (stereo not shown) [Compound 325]
  IC50: 1260 nM

## Cc1cc2ccc(C(C)(C#N)Cc3cccc(I)c3)cc2[nH]c1=O (stereo not shown) [Compound 256]
Alamar Blue
  IC50: 1000 nM

## CCc1cc2ccc(C(C#N)(Cc3ccccc3)C3CC3)cc2[nH]c1=O (stereo not shown) [Compound 29]
  IC50: 5010 nM

## CCc1cc2ccc(C(C)(C#N)Cc3cc(N(C)C)nc(C)n3)cc2[nH]c1=O (stereo not shown) [Compound 322]
Alamar Blue
  IC50: 2510 nM

## CCc1cc2ccc([C@@](C)(C#N)CCOc3ccc(C#N)cc3)cc2[nH]c1=O (single isomer, unassigned) [Compound 273]
Alamar Blue
  IC50: 398 nM

## CCc1cc2ccc(C(C)(C#N)Cc3cc(OC)ccc3F)cc2[nH]c1=O (stereo not shown) [Compound 171]
  IC50: 200 nM

## CCc1cc2ccc(C(C)(C#N)Cc3c4ccccc4nn3C)cc2[nH]c1=O (stereo not shown) [Compound 347]
  IC50: 3980 nM

## CCc1cc2ccc(C(C)(C#N)CN(C)Cc3ccc(C#N)cc3)cc2[nH]c1=O (stereo not shown) [Compound 300]
Alamar Blue
  IC50: 501 nM

## CCc1cc2ccc(C(C)(C#N)Cc3cc(C(F)(F)F)ccc3F)cc2[nH]c1=O (stereo not shown) [Compound 283]
Alamar Blue
  IC50: 2000 nM

## CCc1cc2ccc(C(C)(C#N)Cc3cc(C(C)C)ccc3OC)cc2[nH]c1=O (stereo not shown) [Compound 288]
Alamar Blue
  IC50: 2000 nM

## CCc1cc2ccc(C(C)(C#N)Cc3nc(OC)cc(N(C)C)n3)cc2[nH]c1=O (stereo not shown) [Compound 355]
Alamar Blue
  IC50: 398 nM

## CCc1cc2ccc(C(C)(C#N)Cc3cccc4c3CCN4)cc2[nH]c1=O (stereo not shown) [Compound 237]
Alamar Blue
  IC50: 6310 nM

## CCc1cc2ccc([C@](C)(C#N)Cc3cc(OC)nc(C)n3)cc2[nH]c1=O (single isomer, unassigned) [Compound 362]
Alamar Blue
  IC50: 631 nM

## CCc1cc2ccc(C(C)(C#N)Cc3nc(C#N)cc(N(C)C)n3)cc2[nH]c1=O (stereo not shown) [Compound 318]
Alamar Blue
  IC50: 631 nM

## CCc1cc2ccc(C(C)(C#N)Cc3cccc(N(C)CCc4ccccc4)n3)cc2[nH]c1=O.Cl (stereo not shown) [Compound 220]
Alamar Blue
  IC50: 7940 nM

## Cc1cc2ccc([C@](C)(C#N)[C@H]3CCc4ccccc43)cc2[nH]c1=O [Compound 387]
Alamar Blue
  IC50: 5010 nM

## CCc1cc2ccc(C(C)(C#N)Cc3cc(Cl)nc(OC)c3)cc2[nH]c1=O (stereo not shown) [Compound 351]
Alamar Blue
  IC50: 501 nM

## CCc1cc2ccc(C(C#N)(Cc3ccccc3)C(C)C)cc2[nH]c1=O (stereo not shown) [Compound 30]
  IC50: 6310 nM
